We go through 10 compounds from patent US8541418B2, “Inhibitors of polo-like kinase” (Elan Pharmaceutical, Inc., priority 2009, dated 2013).

Usually IC50 stands for the concentration that inhibits the measured activity by half. Usually inhibition stands for the change of the read-out against control, counted positive when it falls.

Like-named read-outs stand apart in the source and are kept apart here. Some results are limits rather than exact numbers.

Experiment [1] addresses T1, PLK2 (Homo sapiens, UniProt Q9NYY3). Nature of the experiment: Kinase panel screening at InVitrogen, PLK2. The settings on record: 10 μM compound.
Experiment [2] concerns the target T2, PLK1 (Homo sapiens, UniProt P53350). Kind of experiment: Kinase panel screening at InVitrogen, PLK1. The settings on record: 10 μM compound.
The target of experiment [3] is T2, PLK1. Kind of experiment: PLK TR-FRET peptide assay, PLK1. The format is biochemical. (In TR-FRET formats the signal depends on donor and acceptor labels being close together.)
In experiment [4] the test system is over 300 kinases, including CDK-1, CDK-2, CDK-5, CLK-1, CLK-2, CLK-3, CLK-4, NEK-1, NEK-2, NEK-4, NEK-6, NEK-7, MAP4K4 and STK16. Nature of the experiment: Kinase panel screening at InVitrogen, over 300 kinases. The settings on record: 10 μM compound; all but 21 of the kinases, including CDK-1, CDK-2, CDK-5, CLK-1 to CLK-4, NEK-1, -2, -4, -6, -7, MAP4K4, STK16.
The next experiment addresses PLK3 (Homo sapiens, UniProt Q9H4B4). Kind of experiment: PLK TR-FRET peptide assay, PLK3. The experiment is classed as biochemical.
Experiment [5] addresses T1, PLK2. Kind of experiment: PLK TR-FRET peptide assay, PLK2. The experiment is classed as biochemical. The settings on record: for IC50: PLK TR-FRET peptide assay, read-out: Plk2 IC50; for relative PLK2 activity of the enantiomers: compared with the opposite enantiomer.
A further experiment has as its target ABL1 (Homo sapiens, UniProt P00519). Kind of experiment: Kinase panel screening and titration, ABL1. The settings on record: read-out: inhibition of ABL1.
Another experiment addresses KDR (Homo sapiens, UniProt P35968). Nature of the experiment: Kinase panel screening and titration, KDR. The settings on record: read-out: inhibition of KDR.
Setting [6] is: GST-PLK3, 15 min reaction, read-out: Plk3 IC50.

Chain of PLK3 (Q9H4B4 whole entry): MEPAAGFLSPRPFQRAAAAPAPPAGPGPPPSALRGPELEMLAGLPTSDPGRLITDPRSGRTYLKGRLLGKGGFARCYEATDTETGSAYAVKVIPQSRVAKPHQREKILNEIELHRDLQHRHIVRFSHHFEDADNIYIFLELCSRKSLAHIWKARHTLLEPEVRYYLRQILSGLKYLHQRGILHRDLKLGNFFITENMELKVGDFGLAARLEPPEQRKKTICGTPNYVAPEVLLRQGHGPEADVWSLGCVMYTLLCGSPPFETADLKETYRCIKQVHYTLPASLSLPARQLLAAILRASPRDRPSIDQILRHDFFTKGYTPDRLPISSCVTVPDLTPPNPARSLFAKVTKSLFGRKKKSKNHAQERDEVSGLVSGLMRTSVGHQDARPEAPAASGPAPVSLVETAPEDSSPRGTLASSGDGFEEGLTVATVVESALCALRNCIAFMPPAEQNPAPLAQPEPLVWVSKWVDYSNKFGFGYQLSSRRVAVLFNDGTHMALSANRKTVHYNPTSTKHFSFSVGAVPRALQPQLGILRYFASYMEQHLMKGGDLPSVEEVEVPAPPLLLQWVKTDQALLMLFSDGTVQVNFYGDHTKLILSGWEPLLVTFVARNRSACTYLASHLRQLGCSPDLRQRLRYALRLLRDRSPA
T1 sequence (Q9NYY3 whole entry): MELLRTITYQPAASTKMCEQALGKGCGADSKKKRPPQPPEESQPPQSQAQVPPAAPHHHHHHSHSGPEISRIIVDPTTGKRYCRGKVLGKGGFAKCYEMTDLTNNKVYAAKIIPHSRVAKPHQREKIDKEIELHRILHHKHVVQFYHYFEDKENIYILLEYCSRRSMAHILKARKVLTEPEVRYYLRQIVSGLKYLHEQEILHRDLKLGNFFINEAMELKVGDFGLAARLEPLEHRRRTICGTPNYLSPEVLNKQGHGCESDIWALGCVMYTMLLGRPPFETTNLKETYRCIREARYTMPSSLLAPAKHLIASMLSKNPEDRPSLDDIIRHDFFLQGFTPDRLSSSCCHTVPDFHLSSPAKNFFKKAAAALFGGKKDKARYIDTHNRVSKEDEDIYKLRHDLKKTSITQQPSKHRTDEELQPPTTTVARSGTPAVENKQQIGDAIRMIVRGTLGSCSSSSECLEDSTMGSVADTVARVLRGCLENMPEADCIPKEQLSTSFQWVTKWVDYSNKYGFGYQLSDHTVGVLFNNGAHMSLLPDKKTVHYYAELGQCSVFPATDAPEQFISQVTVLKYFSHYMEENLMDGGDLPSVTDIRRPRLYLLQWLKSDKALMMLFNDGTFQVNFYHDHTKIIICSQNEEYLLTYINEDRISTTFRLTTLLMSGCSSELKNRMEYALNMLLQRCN
T2 sequence (P53350 whole entry): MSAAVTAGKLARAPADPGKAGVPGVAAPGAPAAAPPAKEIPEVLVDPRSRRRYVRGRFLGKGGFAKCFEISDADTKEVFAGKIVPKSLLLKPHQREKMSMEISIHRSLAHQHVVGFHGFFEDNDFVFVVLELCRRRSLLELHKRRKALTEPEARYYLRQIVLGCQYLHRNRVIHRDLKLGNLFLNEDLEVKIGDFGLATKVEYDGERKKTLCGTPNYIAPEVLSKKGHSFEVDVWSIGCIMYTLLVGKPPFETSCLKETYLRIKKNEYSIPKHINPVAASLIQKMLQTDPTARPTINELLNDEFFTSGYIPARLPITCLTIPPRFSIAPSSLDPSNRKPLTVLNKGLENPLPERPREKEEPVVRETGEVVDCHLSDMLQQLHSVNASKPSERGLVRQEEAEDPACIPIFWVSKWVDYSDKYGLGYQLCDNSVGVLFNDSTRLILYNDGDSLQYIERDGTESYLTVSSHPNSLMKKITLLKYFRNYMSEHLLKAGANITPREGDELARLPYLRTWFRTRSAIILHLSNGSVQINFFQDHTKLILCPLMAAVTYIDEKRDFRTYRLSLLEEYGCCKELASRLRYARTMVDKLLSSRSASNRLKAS
Chain of KDR (P35968 20-1356): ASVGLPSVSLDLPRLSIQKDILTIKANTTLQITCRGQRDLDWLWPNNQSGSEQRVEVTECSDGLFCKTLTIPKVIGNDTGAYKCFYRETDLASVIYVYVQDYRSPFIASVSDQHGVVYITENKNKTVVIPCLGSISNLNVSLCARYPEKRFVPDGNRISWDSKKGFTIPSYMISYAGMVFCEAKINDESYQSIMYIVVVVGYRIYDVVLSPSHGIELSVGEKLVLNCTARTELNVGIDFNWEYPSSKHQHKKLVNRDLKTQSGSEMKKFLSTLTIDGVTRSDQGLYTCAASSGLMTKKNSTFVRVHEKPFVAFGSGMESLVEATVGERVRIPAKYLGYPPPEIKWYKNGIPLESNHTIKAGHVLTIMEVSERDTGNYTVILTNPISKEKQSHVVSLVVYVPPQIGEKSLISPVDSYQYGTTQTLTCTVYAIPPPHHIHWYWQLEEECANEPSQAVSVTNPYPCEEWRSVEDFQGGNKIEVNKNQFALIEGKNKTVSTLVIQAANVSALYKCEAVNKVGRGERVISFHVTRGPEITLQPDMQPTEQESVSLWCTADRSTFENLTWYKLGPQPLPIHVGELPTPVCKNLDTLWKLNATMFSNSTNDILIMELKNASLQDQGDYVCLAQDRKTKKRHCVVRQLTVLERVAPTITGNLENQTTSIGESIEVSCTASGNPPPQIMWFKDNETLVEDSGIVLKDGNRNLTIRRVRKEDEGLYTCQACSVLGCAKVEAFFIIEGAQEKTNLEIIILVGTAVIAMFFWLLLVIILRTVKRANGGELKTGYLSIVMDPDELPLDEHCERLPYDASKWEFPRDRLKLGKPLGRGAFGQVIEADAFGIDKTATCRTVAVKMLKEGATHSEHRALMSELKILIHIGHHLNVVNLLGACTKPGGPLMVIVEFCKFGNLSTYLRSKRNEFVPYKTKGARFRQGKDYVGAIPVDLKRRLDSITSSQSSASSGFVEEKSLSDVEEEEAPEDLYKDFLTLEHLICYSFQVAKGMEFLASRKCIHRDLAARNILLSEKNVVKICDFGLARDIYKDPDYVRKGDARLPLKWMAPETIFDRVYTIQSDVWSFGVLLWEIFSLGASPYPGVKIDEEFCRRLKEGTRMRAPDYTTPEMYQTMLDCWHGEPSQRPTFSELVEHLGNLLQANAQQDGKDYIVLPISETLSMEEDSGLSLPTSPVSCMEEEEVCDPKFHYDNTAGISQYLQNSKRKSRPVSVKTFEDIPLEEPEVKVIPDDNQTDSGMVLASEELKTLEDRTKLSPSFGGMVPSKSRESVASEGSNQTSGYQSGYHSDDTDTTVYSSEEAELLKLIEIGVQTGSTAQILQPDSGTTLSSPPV
Chain of ABL1 (P00519 whole entry): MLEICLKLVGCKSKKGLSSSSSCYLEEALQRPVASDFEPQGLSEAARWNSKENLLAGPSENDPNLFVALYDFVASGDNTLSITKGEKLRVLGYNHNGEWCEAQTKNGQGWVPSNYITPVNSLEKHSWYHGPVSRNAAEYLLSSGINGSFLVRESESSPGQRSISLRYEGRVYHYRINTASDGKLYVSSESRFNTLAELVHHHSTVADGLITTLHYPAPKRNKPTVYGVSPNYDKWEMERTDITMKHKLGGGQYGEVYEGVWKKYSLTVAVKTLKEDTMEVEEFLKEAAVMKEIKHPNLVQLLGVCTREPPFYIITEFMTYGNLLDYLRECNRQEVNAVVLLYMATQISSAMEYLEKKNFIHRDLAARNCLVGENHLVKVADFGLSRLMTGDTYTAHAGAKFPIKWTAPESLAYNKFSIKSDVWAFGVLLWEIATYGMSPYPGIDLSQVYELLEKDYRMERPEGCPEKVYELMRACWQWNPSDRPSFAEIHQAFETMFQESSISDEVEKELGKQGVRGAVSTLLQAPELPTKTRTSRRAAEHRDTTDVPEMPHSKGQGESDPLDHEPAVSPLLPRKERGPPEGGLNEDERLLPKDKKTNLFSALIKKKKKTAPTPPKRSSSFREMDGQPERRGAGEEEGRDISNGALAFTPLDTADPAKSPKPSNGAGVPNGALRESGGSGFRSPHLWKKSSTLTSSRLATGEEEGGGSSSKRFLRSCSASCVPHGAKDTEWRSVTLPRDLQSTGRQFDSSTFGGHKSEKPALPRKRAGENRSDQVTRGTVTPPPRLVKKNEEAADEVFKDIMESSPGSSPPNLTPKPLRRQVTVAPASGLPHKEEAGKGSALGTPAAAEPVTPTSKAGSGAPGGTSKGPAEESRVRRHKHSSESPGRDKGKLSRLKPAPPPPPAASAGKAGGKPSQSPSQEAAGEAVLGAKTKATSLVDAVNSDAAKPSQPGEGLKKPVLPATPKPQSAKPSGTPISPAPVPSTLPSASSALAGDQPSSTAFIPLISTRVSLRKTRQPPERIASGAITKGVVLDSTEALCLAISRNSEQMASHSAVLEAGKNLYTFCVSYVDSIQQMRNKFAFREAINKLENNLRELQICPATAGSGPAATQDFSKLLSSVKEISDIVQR

In the case of `CC[C@@]12CCCN1c1nc(-n3ccnc3-c3ccccc3)ncc1N(C)C2=O` [Example 76, (S)-6a-ethyl-5-methyl-2-(2-phenyl-1H-imidazol-1-yl)-6a,7,8,9-tetrahydropyrrolo[2,1-h]pteridin-6(5H)-one], the “activity against PLK2 in kinase panel” value at PLK2 [1] is listed as “potent”. The “activity against PLK1 in kinase panel” value at PLK1 [2] was “potent”.

With `CC[C@@H]1C(=O)N(C)c2cnc(-n3ccnc3-c3ccccc3)nc2N1C1CCCC1` [Example 26, (R)-8-cyclopentyl-7-ethyl-5-methyl-2-(2-phenyl-1H-imidazol-1-yl)-7,8-dihydropteridin-6(5H)-one], the “activity against PLK2 in kinase panel” value on PLK2 [1] is “potent”.

For `CC[C@@H]1C(=O)N(C)c2cnc(-n3ccnc3-c3cccc(F)c3)nc2N1C1CCOC1` (stereo partly drawn) [Example 192, (7R)-7-ethyl-2-(2-(3-fluorophenyl)-1H-imidazol-1-yl)-5-methyl-8-(tetrahydrofuran-3-yl)-7,8-dihydropteridin-6(5H)-one], the “activity against PLK2 in kinase panel” value at PLK2 [1] is on record as “potent”. Moreover, the “activity against PLK1 in kinase panel” value on PLK1 [2] is “potent”. Also, the half-inhibitory concentration (IC50) on PLK1 [3] (GST-PLK1, 60 min reaction) is under 1000 nM; on PLK3 (setting [6]), 1000 to 10000 nM; at PLK2 [5] (GST-PLK2, 60 min reaction) it was under 1000 nM. The “inhibition of kinases in panel of over 300” value in experiment [4] is “below 40%”. The inhibition at 10 µM at ABL1 and on KDR was over 80% throughout.

Regarding `CC[C@@H]1C(=O)N(C)c2cnc(-n3ccnc3-c3cscn3)nc2N1C1CCCC1` [Example 68, (R)-8-cyclopentyl-7-ethyl-5-methyl-2-(2-(thiazol-4-yl)-1H-imidazol-1-yl)-7,8-dihydropteridin-6(5H)-one], on PLK2 [1], the “activity against PLK2 in kinase panel” value is recorded as “potent”. Further, the “activity against PLK1 in kinase panel” value at PLK1 [2] is “potent”. In addition, the 50% inhibitory concentration (IC50) on PLK1 [3] (GST-PLK1, 60 min reaction) is under 1000 nM; on PLK3 (setting [6]), under 1000 nM; at PLK2 [5] (GST-PLK2, 60 min reaction) it was under 1000 nM.

As to `CC[C@]12CCCCN1c1nc(-n3ccnc3-c3cccc(F)c3F)ncc1N(C)C2=O` [Example 261, (R)-2-(2-(2,3-difluorophenyl)-1H-imidazol-1-yl)-6a-ethyl-5-methyl-7,8,9,10-tetrahydro-5H-pyrido[2,1-h]pteridin-6(6aH)-one], the IC50 on PLK1 [3] (GST-PLK1, 60 min reaction) was over 50000 nM; at PLK3 (setting [6]) it was over 50000 nM; at PLK2 [5] (GST-PLK2, 60 min reaction), 1000 to 10000 nM.

As for `CCC12CCCCCN1c1nc(-n3ncnc3-c3ccccc3)ncc1N(C)C2=O` (racemic) [Example 216, (+/−) 6a-ethyl-5-methyl-2-(5-phenyl-1H-1,2,4-triazol-1-yl)-6a,7,8,9,10,11-hexahydroazepino[2,1-h]pteridin-6(5H)-one], the concentration for half-maximal inhibition (IC50) against PLK1 [3] (GST-PLK1, 60 min reaction) fell in the range of 1000 to 10000 nM; at PLK3 (setting [6]), 10000 to 50000 nM; on PLK2 [5] (GST-PLK2, 60 min reaction), 1000 to 10000 nM.

Turning to `CC[C@@H]1C(=O)N(C)c2cnc(-n3ccnc3N3CCOCC3)nc2N1C1CCCC1` [Example 87, (R)-8-cyclopentyl-7-ethyl-5-methyl-2-(2-morpholino-1H-imidazol-1-yl)-7,8-dihydropteridin-6(5H)-one], the 50% inhibitory concentration (IC50) against PLK1 [3] (GST-PLK1, 60 min reaction) is 1000 to 10000 nM; on PLK3 (setting [6]), over 50000 nM; on PLK2 [5] (GST-PLK2, 60 min reaction) it was 1000 to 10000 nM.

With `CC[C@@H]1C(=O)N(C)c2cnc(-c3cnsc3-c3ccc(F)cc3)nc2N1c1cccc(C#N)c1` [Example 391, (R)-3-(7-ethyl-2-(5-(4-fluorophenyl)isothiazol-4-yl)-5-methyl-6-oxo-6,7-dihydropteridin-8(5H)-yl)benzonitrile], the IC50 at PLK1 [3] (GST-PLK1) was under 1000 nM; on PLK3 (GST-PLK3, read-out: Plk3 IC50), under 1000 nM; on PLK2 [5] (GST-PLK2), under 1000 nM. Besides, the “relative PLK2 activity of the enantiomers” value on PLK2 [5] is reported as “more active compound”.

As to `CCC1C(=O)N(C)c2cnc(-c3cn[nH]c3-c3nccs3)nc2N1c1cccc(C#N)c1` (stereo not drawn) [Example 372, 3-(7-ethyl-5-methyl-6-oxo-2-(5-(thiazol-2-yl)-1H-pyrazol-4-yl)-6,7-dihydropteridin-8(5H)-yl)benzonitrile], the concentration for half-maximal inhibition (IC50) on PLK1 [3] (GST-PLK1, 60 min reaction) was 1000 to 10000 nM; on PLK3 (setting [6]), 1000 to 10000 nM; on PLK2 [5] (GST-PLK2, 60 min reaction), under 1000 nM.

Regarding `CC[C@@]12CCCCN1c1nc(-n3ccnc3-c3cc(F)cc(F)c3)ncc1N(C)C2=O` [Example 249, (S)-2-(2-(3,5-difluorophenyl)-1H-imidazol-1-yl)-6a-ethyl-5-methyl-7,8,9,10-tetrahydro-5H-pyrido[2,1-h]pteridin-6(6aH)-one], the IC50 against PLK1 [3] (GST-PLK1, 60 min reaction) is 1000 to 10000 nM; on PLK3 (setting [6]) it was over 50000 nM; at PLK2 [5] (GST-PLK2, 60 min reaction), under 1000 nM. Further, at PLK2 [5], the “relative PLK2 activity of the enantiomers” value is recorded as “more active compound”.
